Columns and labels:
[1] = Lymphocyte sequestration in mice; type: in vivo, C57BL6 mice; conditions: 10 mg/kg intraperitoneally, blood after 12 h, compared to saline
Excerpt: In more exemplary embodiments, compounds 5 and 5-P were further examined for their ability to activate multiple S1P receptors in vivo. In particular, mouse heart rate and lymphocyte sequestration were examined. Mouse heart rate decreases causing bradycardia when S1P receptor 3 is activated while in humans this effect may be mediated by S1P receptor 1. In both mice and humans, lymphocytes are sequestered when the S1P receptor 1 is activated.
Lymphocyte sequestration: Female 8-24 week old C57BL6 mice are injected intraperitoneally with vehicle (0.9% saline or 20% acidified DMSO in 0.9% saline), 10 mg/kg FTY720, FTY720-phosphate, 5, or 5-P. After 12 h, blood is collected from the retro-orbital sinus under ketamine/xylazine anesthesia. 10 μL of whole blood is added to 190 μL of ACK red blood cell lysis buffer, incubated at room temperature for 3-5 minutes […], and the white blood cells recovered by centrifugation. Nucleated cells (Hoechst33342 positive) are counted using a hemocytometer to obtain the white blood cell count. Separately, 50 μL of whole blood is added to 1 mL of ACK red blood cell lysis buffer and incubated for 3-5 minutes at room temperature. Cells are washed with FACS wash (2% FCS in PBS with 0.05% NaN3) and red blood cell lysis repeated. Tubes are decanted and resuspended in 100 μL of FACS block (10% FCS in PBS with 0.05% NaN3) with directly conjugated antibodies recognizing B220, CD4, or CD8 (all from Biolegend, San Diego) for 30 min on ice. Cells are analyzed on a BD LSR II flow cytometer; the analysis is restricted to live cells (DAPI negative). These experiments are performed in accordance with all national or local guidelines and regulations and are approved by the UCI Institutional Animal Care and Use Committee.

S1P receptor 1 = molecular target: T1, S1P receptor 1 (Homo sapiens, UniProt P21453); experiment: S1P receptor activation in CHO cells, S1P1; type: cell-based; conditions: CHO cells over-expressing human S1P1, 10 min stimulation, Western blot
T1 construct: expressed in transfected cells
Excerpt: (§1) Phosphorylation may have effects on S1P receptor activity that could cause bradycardia. Bradycardia, the dose-limiting toxicity that prevents the use of FTY720 in cancer patients, stems from FTY720-P's actions on S1P receptors 1 and 3. (Camm, J., et al. (2014) Am. Heart J. 168, 632-644; Cohen, J. A., Chun, J. (2011) Ann. Neurol. 69, 759-777; Sanna, M. G., et al. (2004) J. Biol. Chem. 279, 13839-13848; the disclosures of which are incorporated herein by reference). Phosphorylation by sphingosine kinase may make compounds competent to activate S1P receptors. FTY720, for example, when phosphorylated is known to activate S1P receptors 1 and 3. Because compound 5 could be phosphorylated, the activity of compound 5 and its phosphate 5-P (FIG. 28) on S1P receptors was evaluated (FIG. 32).
(§2) 51P1-5 activation: Chinese hamster ovary (CHO) cells stably over-expressing the different human 51P receptor subtypes are used. S1P1, S1P4 and S1P5 overexpressing CHO cells are cultured in medium containing alpha-MEM supplemented with 10% FBS, 50 μg/ml gentamycin and 0.5 mg/ml G418. S1P2 and S1P3 overexpressing CHO cells are cultured in RPMI containing 10% FBS, 50 μg/ml gentamycin and 0.5 mg/ml G418. Prior to stimulation, cells are rendered serum-free for 24 h. Stimulation is carried out for 10 min in serum-free DMEM containing 0.1 mg/ml of fatty-acid free BSA in the absence or presence of the various compounds or 51P. Protein lysates are prepared using a buffer containing (50 mM Tris pH 7.4, 150 mM NaCl, 10% glycerol, 1% Triton X-100, 2 mM EDTA, 2 mM EGTA, 40 mM β-glycerophosphate, 50 mM sodium fluoride, 10 mM sodium pyrophosphate, 2 mM dithiothreitol, 0.2 mM sodium orthovanadate). Cells are homogenized by one 5 sec burst in a MSE Ultrasonic Disintegrator, centrifuged and taken for protein determination. Equal amounts of protein are separated by SDS-PAGE (10% polyacrylamide gel), transferred to nitrocellulose membranes and subjected to Western blot analysis. Bands were stained using IRDye® secondary antibodies and visualized by the LICOR Odyssey® Fc Imaging system. Antibodies against phospho-Thr202/Tyr204-p42/p44-MAPK and phospho-Ser PKC substrate are from Cell Signaling, Frankfurt am Main, Germany. Polyclonal antisera against total p42 and total p44 were generated and characterized as previously described. (Huwiler, A.; Pfeilschifter, J. Br. J. Pharmacol. 1994, 113, 1455-1463; disclosure of which is incorporated herein by reference).

S1P receptor 4 = molecular target: T2, S1P receptor 4 (Homo sapiens, UniProt O95977); experiment: S1P receptor activation in CHO cells, S1P4; type: cell-based; conditions: CHO cells over-expressing human S1P4
T2 construct: expressed in transfected cells
T2 sequence (O95977 1-384): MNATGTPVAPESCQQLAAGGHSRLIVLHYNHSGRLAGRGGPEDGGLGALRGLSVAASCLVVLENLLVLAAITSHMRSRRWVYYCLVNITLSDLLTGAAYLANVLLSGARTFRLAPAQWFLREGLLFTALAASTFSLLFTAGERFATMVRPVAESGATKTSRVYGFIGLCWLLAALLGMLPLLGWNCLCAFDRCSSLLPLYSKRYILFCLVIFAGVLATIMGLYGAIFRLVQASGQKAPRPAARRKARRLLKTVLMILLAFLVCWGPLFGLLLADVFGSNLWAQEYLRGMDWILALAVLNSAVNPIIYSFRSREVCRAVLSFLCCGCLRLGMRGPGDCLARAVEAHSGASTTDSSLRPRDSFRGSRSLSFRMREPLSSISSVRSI
Excerpt: as §1, §2

T1 sequence (P21453 whole entry): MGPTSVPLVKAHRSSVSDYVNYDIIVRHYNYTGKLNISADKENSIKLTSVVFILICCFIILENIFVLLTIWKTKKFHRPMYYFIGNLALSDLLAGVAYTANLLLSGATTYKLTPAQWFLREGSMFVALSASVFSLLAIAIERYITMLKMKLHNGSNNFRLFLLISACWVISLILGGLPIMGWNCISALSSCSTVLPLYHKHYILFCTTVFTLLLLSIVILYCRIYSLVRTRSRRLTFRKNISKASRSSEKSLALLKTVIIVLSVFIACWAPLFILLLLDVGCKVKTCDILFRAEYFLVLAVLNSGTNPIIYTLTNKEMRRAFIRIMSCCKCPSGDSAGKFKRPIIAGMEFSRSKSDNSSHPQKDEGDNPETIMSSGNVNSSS

| Compound | lymphocyte sequestration [1] | activation of S1P receptor 1 (S1P receptor 1) | activation of S1P receptor 4 (S1P receptor 4) |
| --- | --- | --- | --- |
| CCCCCCCCc1ccc(CCC(N)(CO)CO)cc1.Cl [FTY720, 2-Amino-2-[2-(4-octylphenyl)ethyl]propane 1,3-diol hydrochloride, reference compound] | significantly sequestered lymphocytes |  |  |
| CCCCCCCCc1ccc([C@@H]2CCN[C@H]2CO)cc1.Cl [Compound 6] |  | weakly activated | failed to activate |
| CCCCCCCCc1ccc([C@H]2CCN[C@@H]2CO)cc1.Cl [Compound 5, (2S,3R)-2-(hydroxymethyl)-3-(4-octylphenyl)Pyrrolidinium chloride] | no significant effect | weakly activated | failed to activate |

— patent publication US10995068B2, “Synthetic sphingolipid-like molecules, drugs, methods of their synthesis and methods of treatment” (The Regents of the University of California, priority 2015, dated 2021)
